Results taken from patent US6720346B2, “Thiazole benzamide derivatives and pharmaceutical compositions for inhibiting cell proliferation” (Agouron Pharmaceuticals, Inc., priority 2001, dated 2004).
pIC50, pKi: −log10 of the molar value. Counter-ions that a name gives are not always drawn.

Columns and labels:
CDK2/cyclin A = target: T1, CDK2/cyclin A (Homo sapiens, UniProt P24941); assay: Inhibition of CDK2/cyclin A retinoblastoma kinase activity (Ki; % inhibition); assay type: biochemical; settings: apparent Ki, CDK2/cyclin A, Rb substrate
T1 construct: made in house; host or cells: CDK2: insect cells (baculovirus); cyclin A: E. coli
Procedure: (§1) Cyclin-dependent kinase activity was measured by quantifying the enzyme-catalyzed, time-dependent incorporation of radioactive phosphate from [^32P]ATP or [^33P]ATP into a protein substrate. Unless noted otherwise, assays were performed in 96-well plates in a total volume of 50 μL, in the presence of 10 mM HEPES (N-[2-hydroxyethyl]piperazine-N′-[2-ethanesulfonic acid]) (pH 7.4), 10 mM MgCl2, 25 μM adenosine triphosphate (ATP), 1 mg/mL ovalbumin, 5 μg/mL leupeptin, 1 mM dithiothreitol, 10 mM β-glycerophosphate, 0.1 mM sodium vanadate, 1 mM sodium fluoride, 2.5 mM ethylene glycol-bis(β-aminoethyl ether)-N,N,N′N′-tetraacetic acid (EGTA), 2% (v/v) dimethylsulfoxide, and 0.03-0.4 μCi [^32/33P]ATP per reaction. Reactions were initiated with enzyme, incubated at 30° C., and terminated after 20 minutes by the addition of ethylenediaminetetraacetic acid (EDTA) to 250 mM. The phosphorylated substrate was then captured on a nitrocellulose or phosphocellulose membrane using a 96-well filtration manifold, and unincorporated radioactivity was removed by repeated washing with 0.85% phosphoric acid. Radioactivity was quantified by exposing the dried membranes to a phosphorimager.
(§2) Compounds from combinatorial libraries were screened from 96-well plates for % inhibition of CDK activity at 30 nM theoretical compound concentration. Inhibition was measured relative to control wells that contained all reaction components including 2% (v/v) DMSO but no compound, after subtraction of background radioactivity measured in the absence of enzyme. Apparent Ki values of discrete compounds were measured by assaying enzyme activity in the presence of different inhibitor compound concentrations and subtracting the background radioactivity measured in the absence of enzyme. The kinetic parameters (kcat, Km for ATP) were measured for each enzyme under the usual assay conditions by determining the dependence of initial rates on ATP concentration. Inhibition data were fit to an equation for competitive inhibition using Kaleidagraph (Synergy Software), or were fit to an equation for competitive tight-binding inhibition using the software KineTic (BioKin, Ltd.).
CDK2 was purified using published methodology (Rosenblatt et al., “Purification and Crystallization of Human Cyclin-dependent Kinase 2,” J. Mol. Biol., 230, 1993, pp. 1317-1319) from insect cells that had been infected with a baculovirus expression vector. […] A complex of CDK2 and proteolyzed cyclin A was prepared and purified by gel filtration. The substrate for this assay was the same Rb substrate fragment used for the CDK4 assays, and the methodology of the CDK2/delta cyclin A and the CDK4/delta cyclin D3 assays was essentially the same, except that CDK2 was present at 10 nM or 19 nM. The duration of the assay was 60 or 75 minutes, during which the time-dependence of product formation was linear and initial rate conditions were met.

HCT-116 cell line = assay: Inhibition of cell growth, MTT tetrazolium salt assay; assay type: cell-based; settings: Homo sapiens, HCT-116, 120 h; MTT, three to five days
Procedure: Inhibition of cell growth was measured using the tetrazolium salt assay, which is based on the ability of viable cells to reduce 3-(4,5-dimethylthiazol-2-yl)-2,5-[2H]-diphenyltetrazolium bromide (MTT) to formazan (Mossman, Journal of Immunological Methods, 65, (1983), pp. 55-58). The water-insoluble purple formazan product was then detected spectrophotometrically. The HCT-116 cell line was used as a representative cancer cell line and grown in 96-well plates. Cells were plated in McCoy's 5A Medium at a volume of 135 μl/well. Plates were incubated for four hours before addition of inhibitor compounds. Different concentrations of inhibitor compounds were added in 0.5% (v/v) dimethylsulfoxide (15 μL/well), and cells were incubated at 37° C. (5% CO2) for three to five days. At the end of the incubation, MTT was added to a final concentration of 0.2 mg/mL, and cells were incubated for 4 hours more at 37° C. After centrifugation of the plates and removal of medium, the absorbance of the formazan (solubilized in dimethylsulfoxide) was measured at 540 nm. The concentration of inhibitor compound causing 50% (IC50) or 90% ([…]) inhibition of growth was determined from the linear portion of a semi-log plot of inhibitor concentration versus percent inhibition. All results were compared to control cells treated only with 0.5% (v/v) dimethylsulfoxide.

human CDK4/cyclin D3 = target: T2, human CDK4/cyclin D3 (Homo sapiens, UniProt P11802); assay: Inhibition of CDK4/cyclin D retinoblastoma kinase activity (Ki; % inhibition); assay type: biochemical; settings: apparent Ki, CDK4/cyclin D3, Rb substrate
T2 construct: made in house; host or cells: insect cells co-infected with baculovirus vectors
Procedure: as §1, §2
A complex of human CDK4 and genetically truncated (1-264) cyclin D3 was purified using traditional biochemical chromatographic techniques from insect cells that had been co-infected with the corresponding baculovirus expression vectors (see e.g., Meijer and Kim, “Chemical Inhibitors of Cyclin-Dependent Kinases,” Methods in Enzymol., 283 (1997), pp. 113-128.). The enzyme complex (5 nM) was assayed with 0.3-0.5 μg of purified recombinant retinoblastoma protein fragment (Rb) as a substrate. The engineered Rb fragment (residues 386-928 of the native retinoblastoma protein; 62.3 kDa) contains the majority of the phosphorylation sites found in the native 106-kDa protein, as well as a tag of six histidine residues for ease of purification. Phosphorylated Rb substrate was captured by microfiltration on a nitrocellulose membrane and quantified using a phosphorimager as described above. For measurement of tight-binding inhibitors, the assay duration was extended to 60 minutes, during which the time-dependence of product formation was linear and initial rate conditions were met.

T2 sequence (P11802 whole entry): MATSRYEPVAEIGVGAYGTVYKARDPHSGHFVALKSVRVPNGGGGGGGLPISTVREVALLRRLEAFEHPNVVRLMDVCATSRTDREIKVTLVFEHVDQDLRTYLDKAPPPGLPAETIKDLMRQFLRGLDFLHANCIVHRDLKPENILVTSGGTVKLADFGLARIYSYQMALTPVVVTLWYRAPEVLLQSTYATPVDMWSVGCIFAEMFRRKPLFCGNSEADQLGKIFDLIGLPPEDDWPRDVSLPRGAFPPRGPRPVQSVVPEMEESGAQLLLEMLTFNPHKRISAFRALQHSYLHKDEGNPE
T2 sequence (P30281 1-264 partner limits assumed): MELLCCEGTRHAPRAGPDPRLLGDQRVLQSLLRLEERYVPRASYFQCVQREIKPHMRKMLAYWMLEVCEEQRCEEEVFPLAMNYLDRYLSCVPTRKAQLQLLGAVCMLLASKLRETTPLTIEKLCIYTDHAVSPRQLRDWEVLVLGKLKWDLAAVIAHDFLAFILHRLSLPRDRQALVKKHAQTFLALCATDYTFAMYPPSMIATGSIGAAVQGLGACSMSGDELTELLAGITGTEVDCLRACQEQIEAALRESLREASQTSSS

A pKi (CDK2/cyclin A) of 7.10, a pIC50 (HCT-116 cell line) of 6.77 and a pKi (human CDK4/cyclin D3) of 7.70 were found for `Nc1nc(Nc2ccc(C(=O)NCCc3cccs3)cc2)sc1C(=O)c1c(F)cccc1F` [Example A26, 4-[4-Amino-5-(2,6-difluoro-benzoyl)-thiazol-2-ylamino]-N-(2-thiophen-2-yl-ethyl)-benzamide] in this work.
A pKi (CDK2/cyclin A) of 7.28, a pIC50 (HCT-116 cell line) of 6.66 and a pKi (human CDK4/cyclin D3) of 7.59 were found for `Nc1nc(Nc2ccc(C(=O)NCCc3ccncc3)cc2)sc1C(=O)c1c(F)cccc1F` [Example A29, 4-[4-Amino-5-(2,6-difluoro-benzoyl)-thiazol-2-ylamino]-N-(2-pyridin-4-yl-ethyl)-benzamide] in this work.
A pKi (CDK2/cyclin A) of 7.16, a pIC50 (HCT-116 cell line) of 7.05 and a pKi (human CDK4/cyclin D3) of 8.15 were found for `CN1CC[C@@H](NC(=O)c2ccc(Nc3nc(N)c(C(=O)c4c(F)cccc4F)s3)cc2)C1` [Example A30, 4-[4-Amino-5-(2,6-difluoro-benzoyl)-thiazol-2-ylamino]-N-(1-methyl-pyrrolidin-3R-yl)-benzamide] in this work.
A pKi (CDK2/cyclin A) of 7.11, a pIC50 (HCT-116 cell line) of 6.55 and a pKi (human CDK4/cyclin D3) of 8.22 were found for `CN1CC[C@H](NC(=O)c2ccc(Nc3nc(N)c(C(=O)c4c(F)cccc4F)s3)cc2)C1` [Example A32, 4-[4-Amino-5-(2,6-difluoro-benzoyl)-thiazol-2-ylamino]-N-(1-methyl-pyrrolidin-3S-yl)-benzamide] in this work.
A pKi (CDK2/cyclin A) of 7.04, a pIC50 (HCT-116 cell line) of 5.66 and a pKi (human CDK4/cyclin D3) of 8.00 were found for `Nc1nc(Nc2ccc(C(=O)NCC3CCCCN3)cc2)sc1C(=O)c1c(F)cccc1F` (stereo not drawn) [Example A33, 4-[4-Amino-5-(2,6-difluoro-benzoyl)-thiazol-2-ylamino]-N-(piperidin-2RS-ylmethyl)-benzamide Trifluoroacetate Salt] in this work.
A pKi (CDK2/cyclin A) of 7.00, a pIC50 (HCT-116 cell line) of 6.85 and a pKi (human CDK4/cyclin D3) of 8.00 were found for `CN1CCC[C@@H]1CNC(=O)c1ccc(Nc2nc(N)c(C(=O)c3c(F)cccc3F)s2)cc1` [Example A34, 4-[4-Amino-5-(2,6-difluoro-benzoyl)-thiazol-2-ylamino]-N-(1-methyl-pyrrolidin-2R-ylmethyl)-benzamide] in this work.
A pKi (CDK2/cyclin A) of 7.27, a pIC50 (HCT-116 cell line) of 6.92 and a pKi (human CDK4/cyclin D3) of 8.22 were found for `Nc1nc(Nc2ccc(C(=O)NCCN3CCCC3)cc2)sc1C(=O)c1c(F)cccc1F` [Example A35, 4-[4-Amino-5-(2,6-difluoro-benzoyl)-thiazol-2-ylamino]-N-(2-pyrrolidin-1-yl-ethyl)-benzamide] in this work.
A pKi (CDK2/cyclin A) of 6.65, a pIC50 (HCT-116 cell line) of 6.11 and a pKi (human CDK4/cyclin D3) of 7.36 were found for `C[C@@H](CN(C)C)N(C)C(=O)c1ccc(Nc2nc(N)c(C(=O)c3c(F)cccc3F)s2)cc1` [Example A36, 4-[4-Amino-5-(2,6-difluoro-benzoyl)-thiazol-2-ylamino]-N-(2-dimethylamino-1S-methyl-ethyl)-N-methyl-benzamide] in this work.
A pKi (CDK2/cyclin A) of 6.85, a pIC50 (HCT-116 cell line) of 7.00 and a pKi (human CDK4/cyclin D3) of 7.62 were found for `CCN1CCC[C@H]1CNC(=O)c1ccc(Nc2nc(N)c(C(=O)c3c(F)cccc3F)s2)cc1` [Example A38, 4-[4-Amino-5-(2,6-difluoro-benzoyl)-thiazol-2-ylamino]-N-(1-ethyl-pyrrolidin-2S-yl-methyl)-benzamide] in this work.
A pKi (CDK2/cyclin A) of 6.80, a pIC50 (HCT-116 cell line) of 6.77 and a pKi (human CDK4/cyclin D3) of 7.96 were found for `CN(CC1CC1)C(C)(C)CNC(=O)c1ccc(Nc2nc(N)c(C(=O)c3c(F)cccc3F)s2)cc1` [Example A39] in this work.
A pKi (CDK2/cyclin A) of 7.03, a pIC50 (HCT-116 cell line) of 7.40 and a pKi (human CDK4/cyclin D3) of 8.05 were found for `C[C@H](CN(C)C)NC(=O)c1ccc(Nc2nc(N)c(C(=O)c3c(F)cccc3F)s2)cc1` [Example A40, 4-[4-Amino-5-(2,6-difluoro-benzoyl)-thiazol-2-ylamino]-N-(2-dimethylamino-1R-methyl-ethyl)-benzamide Dihydrochloride] in this work.
A pKi (CDK2/cyclin A) of 6.64, a pIC50 (HCT-116 cell line) of 6.74 and a pKi (human CDK4/cyclin D3) of 7.46 were found for `C[C@@H](CN(C)C)NC(=O)c1ccc(Nc2nc(N)c(C(=O)c3c(F)cccc3F)s2)cc1` [Example A41] in this work.
A pKi (CDK2/cyclin A) of 6.78, a pIC50 (HCT-116 cell line) of 6.82 and a pKi (human CDK4/cyclin D3) of 7.64 were found for `C[C@@H](CNC(=O)c1ccc(Nc2nc(N)c(C(=O)c3c(F)cccc3F)s2)cc1)N(C)C` [Example A42, 4-[4-Amino-5-(2,6-difluoro-benzoyl)-thiazol-2-ylamino]-N-(2S-dimethylamino-propyl)-benzamide] in this work.
A pKi (CDK2/cyclin A) of 6.96, a pIC50 (HCT-116 cell line) of 6.24 and a pKi (human CDK4/cyclin D3) of 7.89 were found for `CN1CCCC[C@H]1CNC(=O)c1ccc(Nc2nc(N)c(C(=O)c3c(F)cccc3F)s2)cc1` [Example A43, 4-[4-Amino-5-(2,6-difluoro-benzoyl)-thiazol-2-ylamino]-N-(1-methyl-piperidin-2S-yl-methyl)-benzamide] in this work.
A pKi (CDK2/cyclin A) of 7.32, a pIC50 (HCT-116 cell line) of 7.07 and a pKi (human CDK4/cyclin D3) of 8.15 were found for `Nc1nc(Nc2ccc(C(=O)NCCN3CC=CC3)cc2)sc1C(=O)c1c(F)cccc1F` [Example A45, 4-[4-Amino-5-(2,6-difluoro-benzoyl)-thiazol-2-ylamino]-N-[2-(2,5-dihydro-pyrrol-1-yl)-ethyl]-benzamide Dihydrochloride Salt] in this work.
A pKi (CDK2/cyclin A) of 6.66, a pIC50 (HCT-116 cell line) of 7.07 and a pKi (human CDK4/cyclin D3) of 7.82 were found for `C[C@H](CN1CCCCC1)NC(=O)c1ccc(Nc2nc(N)c(C(=O)c3c(F)cccc3F)s2)cc1` [Example A46, 4-[4-Amino-5-(2,6-difluoro-benzoyl)-thiazol-2-ylamino]-N-(1R-methyl-2-piperidin-1-yl-ethyl)-benzamide Trifluoroacetate Salt] in this work.
A pKi (CDK2/cyclin A) of 7.26, a pIC50 (HCT-116 cell line) of 6.24 and a pKi (human CDK4/cyclin D3) of 8.30 were found for `CC(C)[C@H](CN(C)C)NC(=O)c1ccc(Nc2nc(N)c(C(=O)c3c(F)cccc3F)s2)cc1` [Example A47, 4-[4-Amino-5-(2,6-difluoro-benzoyl)-thiazol-2-ylamino]-N-(1R-dimethylaminomethyl-2-methyl-propyl)-benzamide] in this work.
A pKi (CDK2/cyclin A) of 7.26, a pIC50 (HCT-116 cell line) of 6.24 and a pKi (human CDK4/cyclin D3) of 8.30 were found for `CC1(C)CCC(CNC(=O)c2ccc(Nc3nc(N)c(C(=O)c4c(F)cccc4F)s3)cc2)N1` (stereo not drawn) [Example A48, 4-[4-Amino-5-(2,6-difluoro-benzoyl)-thiazol-2-ylamino]-N-(5,5-dimethyl-pyrrolidin-2RS-yl-methyl)-benzamide Hydrochloride Salt] in this work.
A pKi (CDK2/cyclin A) of 6.59, a pIC50 (HCT-116 cell line) of 6.49 and a pKi (human CDK4/cyclin D3) of 7.96 were found for `Nc1nc(Nc2ccc(C(=O)NCc3nccs3)cc2)sc1C(=O)c1c(F)cccc1F` [Example A49, 4-[4-Amino-5-(2,6-difluoro-benzoyl)-thiazol-2-ylamino]-N-(thiazol-2-yl-methyl)-benzamide Hydrochloride] in this work.
A pKi (CDK2/cyclin A) of 7.70, a pIC50 (HCT-116 cell line) of 6.77 and a pKi (human CDK4/cyclin D3) of 7.82 were found for `Cn1ccnc1CNC(=O)c1ccc(Nc2nc(N)c(C(=O)c3c(F)cccc3F)s2)cc1` [Example A50, 4-[4-Amino-5-(2,6-difluoro-benzoyl)-thiazol-2-ylamino]-N-(1-methyl-1H-imidazol-2-ylmethyl)-benzamide Hydrochloride Salt] in this work.
